Key:
Assay type in all cases: functional
[1] = molecular target: GABA-A receptor; anion channel; assay: Activation of chloride ion uptake into mouse brain synaptoneurosomes
[2] = molecular target: T1, GABA-A receptor; anion channel (Mus musculus) (UniProt Q8BHJ7+P26048+Q8QZW7+P50571+Q9R0Y8+P22723+A2AMW3+P62812+Q9JLF1+P26049+P22933+Q9D6F4+P63080+P27681+P16305); assay: Agonistic activity against GABA-A receptor chloride uptake, full agonist
[3] = molecular target: T1, GABA-A receptor; anion channel (Mus musculus); assay: Agonistic activity against GABA-A receptor chloride uptake, partial agonist
[4] = molecular target: GABA-A receptor; anion channel; assay: Activation of chloride ion uptake into mouse brain synaptoneurosomes, no net uptake at […]
[5] = molecular target: T1, GABA-A receptor; anion channel (Mus musculus); assay: Agonistic activity against GABA-A receptor chloride uptake, super-agonist

Compound	EC50 [1] [µM]	Emax [2]	Emax [3]	other results
Oc1noc2c1CCNC2 [GABOXADOL]	335			
NCCCC(=O)NCCCCCCNC(=O)CCCN	643	433		
CCCCNC(=O)CCCN	340		362	
NCCCC(=O)NCCNCC(=O)O				EC50 [4]: > 4000 µM
NCCCC(=O)NCCNC(=O)CCCN	733		264	
NCCCC(=O)NCCN				EC50 [4]: > 4000 µM
NCCCC(=O)NCCCCNC(=O)CCCN	475			Emax [5]: 578
NCCCC(N)=O	317		307	
CC(=O)NCCCCNC(=O)CCCN	414	549		
NCCCCNC(=O)CCCN	1140	497		
